Holding throughout (assay): NCI tumour cell line growth inhibition, 48 h
In assay [1] the test system is MALME-3M melanoma.
The test system of assay [2] is SW-620 colon.
Assay [3] concerns MDA-MB-435.
Assay [4] deals with OVCAR-8 ovarian.
Assay [5] concerns UACC-257 melanoma.
Assay [6] concerns NCI/ADR-RES ovarian.
The test system of assay [7] is NCI-H226 lung.
In assay [8] the test system is SF-539 CNS.
In assay [9] the test system is NCI-H460 lung.
For assay [10], the system named is SR leukemia.

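Dose response: 5 concentrations. Exposure: 48 h. Format: 96-well plates. Endpoint: linear interpolation; highest concentration if not reached. The concentration for 50% growth inhibition is given as GI50. TGI: concentration producing complete growth inhibition.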

For the compound `O=C1CC2OCC=C3CN4CCC56c7ccccc7N1C5C2C3CC46O` (stereo not drawn), the TGI in assay [1], in [2], in [3], in assay [4], in assay [5] and in assay [6] was > 100 µM each time. Further, the TGI in [7], in [8] and in assay [9] was > 100 µM in each case.
Consider `Oc1ccc(Br)cc1C=Nc1cccc(C(F)(F)F)c1`, for which the TGI in assay [1] is 75.5 µM; in [2], > 100 µM; in [3], > 100 µM; in [4] it was > 100 µM; in assay [5], > 100 µM; in [6], > 100 µM. Moreover, the TGI in assay [7] was 90.6 µM; in assay [8] it was 99.1 µM; in assay [9], > 100 µM.
On to `CCOC(=O)CSc1cc(Cl)c(C)cc1S(=O)(=O)/N=C(/N=C/c1ccc([N+](=O)[O-])s1)NNC`, for which the GI50 in assay [1] is 19.9 µM; in [2] it was 31.1 µM; in assay [3], 16.3 µM; in assay [4], 32.7 µM; in assay [5] it was 28.7 µM; in assay [6], 12.7 µM. Also, the GI50 is 33.1 µM in assay [7] and 35.1 µM in assay [9]. The TGI in assay [1] is 55.3 µM; in assay [2] it was > 100 µM; in assay [3], 37.6 µM; in assay [4], 80.2 µM; in [5], 67.2 µM; in assay [6], 30.7 µM. Also, the TGI in assay [7] is 75.8 µM; in assay [9] it was > 100 µM.
`COc1ccc2nc3cc(Cl)ccc3c(NCCCNCCO)c2c1`: the GI50 was 1.21 µM in [1]; 0.304 µM in [2]; 0.522 µM in assay [3]; 0.415 µM in [4]; 1.82 µM in [5]; 4.03 µM in [6]. For the same compound, the GI50 in assay [7] is 1.16 µM; in assay [8] it was 0.508 µM; in [9] it was 0.275 µM. The TGI in assay [1] was determined as 2.82 µM; in assay [2], 2.68 µM; in assay [3] it was 1.88 µM; in [4], 2.45 µM; in [5], 3.48 µM; in assay [6] it was 19.8 µM. Besides, the TGI in assay [7] was determined as 3.12 µM; in assay [8], 2.35 µM; in [9], 1.2 µM.
As to `CC(=O)Nc1ccc(C(=O)CCl)cc1`, the GI50 in [10] was 2.63 µM; in assay [2] it was 1.73 µM; in [3] it was 4.74 µM; in [4], 7.56 µM; in [5], 10.9 µM; in assay [6], 14.7 µM. Also, the GI50 in assay [7] was 16.9 µM; in [8] it was 3.63 µM; in assay [9], 10.8 µM. For the same compound, the TGI was 7.33 µM in assay [10]; 3.38 µM in assay [2]; 16.6 µM in assay [3]; 24.2 µM in assay [4]; 23.3 µM in [5]; 43.5 µM in assay [6]. Moreover, the TGI is 42.6 µM in [7], 14.7 µM in assay [8] and 26 µM in assay [9].
Turning to `Clc1nccc2c(-c3csc(-c4c[nH]c5ccc(Br)cc45)n3)c[nH]c12`, the GI50 in [10] was 1.27 µM; in assay [2], 1.92 µM; in [3] it was 3.43 µM; in assay [4], 3.65 µM; in assay [5] it was 2.68 µM; in assay [6] it was 2.71 µM. Also, the GI50 in assay [7] was 2.4 µM; in assay [8], 1.87 µM; in assay [9] it was 2.16 µM. In addition, the TGI was > 100 µM in assay [10]; 3.63 µM in [2]; 13 µM in assay [3]; 16.2 µM in assay [4]; 4.88 µM in [5]; 10.7 µM in [6]. The TGI in assay [7] turned out to be 13.8 µM; in assay [8], 6.14 µM; in assay [9], 4.58 µM.
On to `CSc1ccc(C2=C(c3ccccc3)C(=O)OC2)cc1`, for which the GI50 in assay [1] was 3.29 µM; in assay [2] it was 1 µM; in assay [3], 0.0923 µM; in [4] it was 0.639 µM; in assay [6], 0.35 µM; in [7], 4.3 µM. The GI50 in assay [8] was 1.49 µM; in assay [9], 1.29 µM. For the same compound, the TGI in assay [1] was 64.1 µM; in assay [2] it was > 20.1 µM; in assay [3], 0.364 µM; in [4], > 100 µM; in [5], > 100 µM; in [6], > 34.9 µM. Further, the TGI is 53.3 µM in assay [7], 12.3 µM in [8] and > 34.8 µM in assay [9].
In the case of `COc1cc2cc(Oc3ccc(NC(=O)Nc4cc(C(F)(F)F)cc(C(F)(F)F)c4)cc3)c(C)nc2cc1OCCN1CCOCC1`, the GI50 in assay [1] was 1.2 µM; in assay [2], 1.72 µM; in assay [3] it was 1.9 µM; in assay [4], 1.67 µM; in assay [5] it was 1.4 µM; in assay [6] it was 1.59 µM. Besides, the GI50 in assay [7] was 1.6 µM; in [8] it was 1.54 µM; in assay [9] it was 1.66 µM. Moreover, the TGI amounted to 3.79 µM in [1]; 7.17 µM in assay [2]; 6.72 µM in assay [3]; 12.8 µM in assay [4]; 4.24 µM in assay [5]; 7.21 µM in [6]. Besides, the results for the TGI in assay [7], in assay [8] and in assay [9] were 6.53 µM, 5.25 µM and 5.52 µM, respectively.
`O=C(CS(=O)(=O)c1nc2ccccc2nc1-c1ccccc1)Nc1ccc(F)cc1`: the GI50 was 80.7 µM in assay [1]; 46.6 µM in assay [2]; 88 µM in assay [3]; 94.3 µM in assay [4]; > 100 µM in assay [5]; 33.7 µM in assay [6]. Also, the GI50 in assay [7] was 85.7 µM; in [8], 18.7 µM; in assay [9], 88.8 µM. For the same compound, the TGI in [1], in assay [2], in assay [3], in assay [4], in assay [5] and in assay [6] was > 100 µM in each case. For the same compound, the TGI was > 100 µM in assay [7], 60.2 µM in [8] and > 100 µM in assay [9].
Consider `COc1cccc2c1-c1nc(N)c3c(OC)cccc3c1C2=O`, for which the TGI in assay [1], in assay [10], in assay [2], in assay [3], in assay [4] and in assay [5] was > 100 µM each time. In addition, the TGI in assay [6], in assay [7] and in [8] was > 100 µM throughout.
With `COc1cc(CNCCCCCCN2C(=O)c3cccc4cccc(c34)C2=O)ccc1O`, the GI50 in assay [1] is 2.02 µM; in [10] it was 2.36 µM; in [2], 4.1 µM; in assay [3], 3.89 µM; in assay [4] it was 4.73 µM; in assay [5], 2.15 µM. The GI50 is 10.4 µM in assay [6], 1.82 µM in [8] and 3.71 µM in [9]. Further, the TGI turned out to be 4.63 µM in [1]; 7.8 µM in assay [10]; 17.2 µM in assay [2]; 15.9 µM in assay [3]; 21.3 µM in assay [4]; 4.49 µM in assay [5]. In addition, the TGI in [6] was determined as 32.9 µM; in assay [8] it was 3.83 µM; in assay [9] it was 15.9 µM.
In the case of `CCOC(=O)c1c(-c2ccccc2)[n+](=O)c2cc(Cl)c(Cl)cc2n1[O-]`, the GI50 in assay [10] was 0.529 µM; in [2] it was 16.5 µM; in assay [3], 5.36 µM; in [4], 2.8 µM; in [5], 2.61 µM; in assay [6], 18 µM. In addition, the GI50 is 15.5 µM in assay [8] and 18.9 µM in [9]. Moreover, the TGI is > 100 µM in assay [10]; 37.1 µM in assay [2]; 19 µM in assay [3]; 8.01 µM in assay [4]; 8.41 µM in assay [5]; 44.7 µM in assay [6]. Also, the TGI in assay [8] was 32 µM; in assay [9], 46.7 µM.
As for `Cc1cc(=O)oc2ccc(OC/C=C3\CCC(=O)O3)cc12`, the GI50 in assay [1] is 1.16 µM; in assay [2] it was 3.87 µM; in assay [3] it was 7.65 µM; in [4] it was 10 µM; in assay [5] it was 12.3 µM; in [6], 13.7 µM. For the same compound, the GI50 in assay [7] is 17.2 µM; in assay [8], 7.95 µM; in assay [9], 17.3 µM. The TGI in [1] is 16.9 µM; in [2], 17.5 µM; in assay [3], 22.8 µM; in [4], 25 µM; in assay [5], 28.7 µM; in assay [6], 32.4 µM. The TGI in assay [7] came out at 57.2 µM; in [8], 25.5 µM; in assay [9], 43 µM.
As to `Cn1cc(/C=C\[N+](=O)[O-])c2ccccc21`, the GI50 in assay [1] is > 100 µM; in assay [3] it was 27.7 µM; in [4] it was 26.9 µM; in assay [5], 33.1 µM; in assay [6], > 100 µM; in [7], 53.3 µM. Moreover, the GI50 was 23.5 µM in assay [8] and 38.6 µM in [9]. Also, the TGI in assay [1] was > 100 µM; in assay [3], 84.7 µM; in [4], 86.1 µM; in assay [5] it was > 100 µM; in [6], > 100 µM; in assay [7], > 100 µM. Also, the TGI in [8] was 49.1 µM; in assay [9] it was > 100 µM.
